Results as given in ChEMBL document CHEMBL4613243, “Calosides A-F, Cardenolides from Calotropis gigantea and Their Cytotoxic Activity” (J Nat Prod, 2020).
pIC50: −log10 of the molar value. Blank lines part the entries; values can stand above or below the molecule they belong to. The source made the active and inactive calls. No cut-off for these calls is given here.

Legend:
[1] = tested on: PANC-1; assay: Cytotoxicity against human PANC1 cells assessed as reduction in cell viability at 0.78 uM after 74 hrs by crystal violet staining based assay; format: functional
[2] = tested on: PANC-1; assay: Antiproliferative activity against human PANC1 cells assessed as reduction in cell viability after 72 hrs by WST-8 assay; format: functional, cell-based; conditions: PANC-1, 72 h
[3] = tested on: HeLa; assay: Antiproliferative activity against human HeLa cells assessed as reduction in cell viability after 72 hrs by WST-8 assay; format: functional, cell-based
[4] = tested on: PANC-1; assay: Cytotoxicity against human PANC1 cells assessed as reduction in cell viability at 0.05 to 100 uM after 74 hrs by crystal violet staining based assay; format: functional

Structure (SMILES): C[C@]12CC[C@H]3[C@@H](CC[C@@H]4C[C@H](O[C@@H]5O[C@H](CO)[C@@H](O)[C@H](O[C@H]6O[C@H](CO)[C@@H](O)[C@H](O)[C@H]6O)[C@H]5O)CC[C@@]43CO)[C@@]1(O)CC[C@@H]2C1=CC(=O)OC1
Activity [1]: 100% | pIC50 [2]: 7.15 | pIC50 [3]: 6.77

Structure (SMILES): C[C@@H]1C[C@H](O)[C@]2(O)O[C@@H]3C[C@@]4(C=O)[C@@H](CC[C@@H]5[C@@H]4CC[C@]4(C)[C@@H](C6=CC(=O)OC6)CC[C@]54O)C[C@H]3O[C@@H]2O1 [CALOTROPIN]
pIC50 [2]: < 5.00 | pIC50 [3]: < 5.00

Structure (SMILES): C[C@]12CC[C@H]3[C@@H](CC[C@@H]4C[C@H](O[C@@H]5O[C@H](CO)[C@@H](O)[C@@H](O[C@H]6O[C@H](CO)[C@@H](O)[C@H](O)[C@H]6O)[C@H]5O)CC[C@@]43CO)[C@@]1(O)CC[C@@H]2C1=CC(=O)OC1
Activity [1]: 100% | pIC50 [2]: 7.10 | pIC50 [3]: 6.77

Structure (SMILES): COC(=O)[C@@]1(C)C[C@@H](C)O[C@H]1O[C@@H]1C[C@H]2CC[C@@H]3[C@H](CC[C@]4(C)[C@@H](C5=CC(=O)OC5)C[C@@H](O)[C@]34O)[C@@]2(C(=O)O)C[C@H]1O
pIC50 [2]: 5.28 | pIC50 [3]: < 5.00

Structure (SMILES): C[C@]12CC[C@H]3[C@@H](CC[C@@H]4C[C@@H](O)[C@H](O)C[C@@]43CO)[C@@]1(O)CC[C@@H]2C1=CC(=O)OC1
pIC50 [2]: 5.29 | pIC50 [3]: < 5.00

Structure (SMILES): C[C@]12CC[C@H]3[C@@H](CC[C@@H]4C[C@@H](O[C@@H]5O[C@H](CO)[C@@H](O)[C@@H](O)[C@H]5O)CC[C@@]43C=O)[C@@]1(O)CC[C@@H]2C1=CC(=O)OC1
pIC50 [2]: 6.82 | pIC50 [3]: 6.42

Structure (SMILES): C[C@]12CC[C@H]3[C@@H](CC[C@@H]4C[C@H](O[C@@H]5O[C@H](CO)[C@@H](O)[C@@H](O)[C@H]5O)CC[C@@]43COC=O)[C@@]1(O)CC[C@@H]2C1=CC(=O)OC1
pIC50 [2]: 6.60 | pIC50 [3]: 6.17

Structure (SMILES): C[C@H]1C[C@@](O)(CC(=O)O)[C@]2(O)O[C@@H]3C[C@@]4(C=O)[C@@H](CC[C@@H]5[C@@H]4CC[C@]4(C)[C@@H](C6=CC(=O)OC6)CC[C@]54O)C[C@H]3O[C@H]2O1
pIC50 [2]: 6.00 | pIC50 [3]: 5.80

Structure (SMILES): C[C@H]1O[C@@H](O[C@@H]2CC[C@@]34CO[C@@]5(CC[C@@H]3C2)[C@@H]4CC[C@]2(C)[C@H](C3=CC(=O)OC3)CC[C@@H]25)[C@H](O)[C@H](O)[C@@H]1O
pIC50 [2]: 5.34 | pIC50 [3]: < 5.00

Structure (SMILES): C[C@]12CC[C@H]3[C@@H](CC[C@@H]4C[C@@H](O)[C@H](O)C[C@@]43C=O)[C@@]1(O)[C@H](O)C[C@@H]2C1=CC(=O)OC1
pIC50 [2]: < 5.00 | pIC50 [3]: < 5.00

pIC50 [2]: 5.23
Structure (SMILES): Nc1ccn([C@@H]2O[C@H](CO)[C@@H](O)C2(F)F)c(=O)n1 [GEMCITABINE]
Activity [4]: inactive

Structure (SMILES): C[C@]12CC[C@H]3[C@@H](CC[C@@H]4C[C@H](O[C@@H]5O[C@H](CO)[C@@H](O)[C@@H](O)[C@H]5O)CC[C@@]43CO)[C@@]1(O)CC[C@@H]2C1=CC(=O)OC1
pIC50 [2]: 6.55 | pIC50 [3]: 6.25
